Source: paper PMC6522510 (Nature Communications, 2019)

Experiments:
Parameters in all cases: species or system AML cell lines (8); Primary HTS, single concentration about 10 uM, Cell Titer Glo viability; log10 luminescence, per cent inhibition relative to cycloheximide control
Conditions in all cases: 72 h, relative to cycloheximide control, log10 luminescence; inhibitor
U937 = test system: U937
CHRF288-11 = test system: CHRF288-11
MOLM-13 = test system: MOLM-13
M07e = test system: M07e
MV4-11 = test system: MV4-11
CMS = test system: CMS
CMK = test system: CMK
ML-2 = test system: ML-2

## Nc1c(C(=O)c2cccc(CCC3(O)CCCC3)c2)cnn1-c1ccc(F)cc1 [SJ000580994-1]
U937
  U937 %inh: 3.468%
CHRF288-11
  CHRF288-11 %inh: 5.85%
MOLM-13
  MOLM-13 %inh: 0.5318%
M07e
  M07e %inh: 2.495%
MV4-11
  MV4-11 %inh: 2.023%
CMS
  CMS %inh: 0.1004%
CMK
  CMK %inh: 2.532%
ML-2
  ML-2 %inh: -0.2918%

## Cn1cc(C2=C(c3cn(CCCO)c4ccccc34)C(=O)NC2=O)c2ccccc21 [SJ000580995-1]
U937
  U937 %inh: 2.993%
CHRF288-11
  CHRF288-11 %inh: 44.69%
MOLM-13
  MOLM-13 %inh: 52.73%
M07e
  M07e %inh: 3.572%
MV4-11
  MV4-11 %inh: 37.67%
CMS
  CMS %inh: 6.597%
CMK
  CMK %inh: 64.37%
ML-2
  ML-2 %inh: -3.665%

## CCCCCNC(=O)[C@@H]1CCCN2C(=O)CC[C@H](NC(=O)[C@H](Cc3ccc(OP(=O)(O)O)cc3)NC(C)=O)C(=O)N12 [SJ000580996-1]
U937
  U937 %inh: 0.5533%
CHRF288-11
  CHRF288-11 %inh: -2.344%
MOLM-13
  MOLM-13 %inh: -0.4821%
M07e
  M07e %inh: -1.329%
MV4-11
  MV4-11 %inh: -4.998%
CMS
  CMS %inh: -2.301%
CMK
  CMK %inh: -6.908%
ML-2
  ML-2 %inh: -1.38%

## COc1ccc(CCN=C2NC(=O)/C(=C/c3ccc4ncccc4c3)S2)cc1 [SJ000580998-1]
U937
  U937 %inh: 0.5801%
CHRF288-11
  CHRF288-11 %inh: -1.93%
MOLM-13
  MOLM-13 %inh: 2.923%
M07e
  M07e %inh: 1.057%
MV4-11
  MV4-11 %inh: -1.039%
CMS
  CMS %inh: -0.7764%
CMK
  CMK %inh: -3.047%
ML-2
  ML-2 %inh: -1.934%

## CNCC#Cc1c(F)ccc2c1/C(=C/c1[nH]ccc1OC)C(=O)N2 [SJ000580999-1]
U937
  U937 %inh: 85.1%
CHRF288-11
  CHRF288-11 %inh: 56.9%
MOLM-13
  MOLM-13 %inh: 105.9%
M07e
  M07e %inh: 73.32%
MV4-11
  MV4-11 %inh: 85.05%
CMS
  CMS %inh: 90.97%
CMK
  CMK %inh: 104.6%
ML-2
  ML-2 %inh: 60.28%

## O=C1NC(O)C(c2c[nH]c3ccccc23)=C1c1c[nH]c2ccccc12 (stereo not drawn) [SJ000581000-1]
U937
  U937 %inh: -0.5983%
CHRF288-11
  CHRF288-11 %inh: 3.04%
MOLM-13
  MOLM-13 %inh: -0.2184%
M07e
  M07e %inh: -1.63%
MV4-11
  MV4-11 %inh: 0.3489%
CMS
  CMS %inh: -2.539%
CMK
  CMK %inh: -1.548%
ML-2
  ML-2 %inh: -2.056%

## Cn1cc(C2=C(Oc3ccccc3)C(=O)NC2=O)c2ccccc21 [SJ000581001-1]
U937
  U937 %inh: 0.6544%
CHRF288-11
  CHRF288-11 %inh: -2.432%
MOLM-13
  MOLM-13 %inh: -0.02006%
M07e
  M07e %inh: -0.2429%
MV4-11
  MV4-11 %inh: -0.8354%
CMS
  CMS %inh: -3.067%
CMK
  CMK %inh: -0.6422%
ML-2
  ML-2 %inh: -1.623%

## Nc1c(C(=O)c2cccc(-c3cccnc3)c2)cnn1-c1ccc(F)cc1F [SJ000581002-1]
U937
  U937 %inh: 25.61%
CHRF288-11
  CHRF288-11 %inh: 23.74%
MOLM-13
  MOLM-13 %inh: 19.66%
M07e
  M07e %inh: 15.2%
MV4-11
  MV4-11 %inh: 0.1873%
CMS
  CMS %inh: 5.431%
CMK
  CMK %inh: 96.76%
ML-2
  ML-2 %inh: 15.07%

## COc1ccc(C2=C(c3cn(C)c4ccccc34)C(=O)NC2=O)cc1OC [SJ000581003-1]
U937
  U937 %inh: 6.689%
CHRF288-11
  CHRF288-11 %inh: 6.661%
MOLM-13
  MOLM-13 %inh: 0.7842%
M07e
  M07e %inh: -0.2143%
MV4-11
  MV4-11 %inh: 4.678%
CMS
  CMS %inh: 5.298%
CMK
  CMK %inh: 38.95%
ML-2
  ML-2 %inh: -1.913%

## O=C1NC(=N[C@@H](CO)c2ccccc2)S/C1=C\c1ccc2ncccc2c1 [SJ000581004-1]
U937
  U937 %inh: 9.087%
CHRF288-11
  CHRF288-11 %inh: 15.94%
MOLM-13
  MOLM-13 %inh: 24.69%
M07e
  M07e %inh: 12.47%
MV4-11
  MV4-11 %inh: 41.34%
CMS
  CMS %inh: 4.436%
CMK
  CMK %inh: 55.48%
ML-2
  ML-2 %inh: 3.929%

## O=C1NC(=N[C@H](CO)c2ccccc2)S/C1=C\c1ccc2ncccc2c1 [SJ000581004-2]
U937
  U937 %inh: 9.058%
CHRF288-11
  CHRF288-11 %inh: 1.03%
MOLM-13
  MOLM-13 %inh: 7.874%
M07e
  M07e %inh: 10.69%
MV4-11
  MV4-11 %inh: 3.175%
CMS
  CMS %inh: 2.583%
CMK
  CMK %inh: 28.24%
ML-2
  ML-2 %inh: 2.475%

## Nc1c(C(=O)c2cccc(C#CCO)c2)cnn1-c1ccc(F)cc1 [SJ000581005-1]
U937
  U937 %inh: -1.339%
CHRF288-11
  CHRF288-11 %inh: -2.428%
MOLM-13
  MOLM-13 %inh: -0.3055%
M07e
  M07e %inh: 1.15%
MV4-11
  MV4-11 %inh: -2.436%
CMS
  CMS %inh: 3.189%
CMK
  CMK %inh: -3.113%
ML-2
  ML-2 %inh: -1.489%

## O=C1NC(=NCc2ccccn2)S/C1=C\c1ccc2ncccc2c1 [SJ000581006-1]
U937
  U937 %inh: 2.876%
CHRF288-11
  CHRF288-11 %inh: -1.509%
MOLM-13
  MOLM-13 %inh: 6.642%
M07e
  M07e %inh: 3.262%
MV4-11
  MV4-11 %inh: 1.986%
CMS
  CMS %inh: -0.1401%
CMK
  CMK %inh: 2.326%
ML-2
  ML-2 %inh: -0.04041%

## Cn1cc(C2=C(c3c4n(c5ccccc35)CCCCC4)C(=O)NC2=O)c2ccccc21 [SJ000581007-1]
U937
  U937 %inh: -0.6469%
CHRF288-11
  CHRF288-11 %inh: -2.847%
MOLM-13
  MOLM-13 %inh: -0.4157%
M07e
  M07e %inh: 0.1866%
MV4-11
  MV4-11 %inh: -1.05%
CMS
  CMS %inh: -2.233%
CMK
  CMK %inh: 2.966%
ML-2
  ML-2 %inh: -3.106%

## Cn1cc(C2=C(c3cccc(NCC(O)CO)c3)C(=O)NC2=O)c2cc(Cl)ccc21 (stereo not drawn) [SJ000581009-1]
U937
  U937 %inh: 8.397%
CHRF288-11
  CHRF288-11 %inh: 28.92%
MOLM-13
  MOLM-13 %inh: 37.38%
M07e
  M07e %inh: 19.12%
MV4-11
  MV4-11 %inh: 70.02%
CMS
  CMS %inh: 98.55%
CMK
  CMK %inh: 105.4%
ML-2
  ML-2 %inh: 10.75%

## Cn1cc(C2=C(c3cn(CCCCCO)c4ccccc34)C(=O)NC2=O)c2ccccc21 [SJ000581010-1]
U937
  U937 %inh: -0.3264%
CHRF288-11
  CHRF288-11 %inh: 17.96%
MOLM-13
  MOLM-13 %inh: 6.709%
M07e
  M07e %inh: 1.341%
MV4-11
  MV4-11 %inh: -1.111%
CMS
  CMS %inh: 1.022%
CMK
  CMK %inh: 27.55%
ML-2
  ML-2 %inh: -1.548%

## Cn1cc(C2=C(c3cn(CCCN=C(N)N)c4ccccc34)C(=O)NC2=O)c2ccccc21 [SJ000581011-1]
U937
  U937 %inh: -0.6406%
CHRF288-11
  CHRF288-11 %inh: 6.037%
MOLM-13
  MOLM-13 %inh: 3.172%
M07e
  M07e %inh: -0.6273%
MV4-11
  MV4-11 %inh: 6.352%
CMS
  CMS %inh: -3.925%
CMK
  CMK %inh: -5.09%
ML-2
  ML-2 %inh: 1.035%

## Cc1cc(C)c2c(n1)sc1c(N)ncnc12 [SJ000581012-1]
U937
  U937 %inh: 3.328%
CHRF288-11
  CHRF288-11 %inh: 1.655%
MOLM-13
  MOLM-13 %inh: -1.383%
M07e
  M07e %inh: -1.463%
MV4-11
  MV4-11 %inh: -4.498%
CMS
  CMS %inh: 2.019%
CMK
  CMK %inh: -2.956%
ML-2
  ML-2 %inh: -0.0326%

## COc1cc[nH]c1/C=C1\C(=O)Nc2ccc(F)c(C#CC3(O)CCNCC3)c21 [SJ000581013-1]
U937
  U937 %inh: 80.6%
CHRF288-11
  CHRF288-11 %inh: 71.86%
MOLM-13
  MOLM-13 %inh: 105.4%
M07e
  M07e %inh: 109.1%
MV4-11
  MV4-11 %inh: 81.96%
CMS
  CMS %inh: 92.23%
CMK
  CMK %inh: 93.46%
ML-2
  ML-2 %inh: 57.56%

## COc1cccc(C(=O)c2sc(Nc3ccc(N4CCN(C(C)C)CC4)cc3)nc2N)c1 [SJ000581014-1]
U937
  U937 %inh: 25.4%
CHRF288-11
  CHRF288-11 %inh: 15.68%
MOLM-13
  MOLM-13 %inh: 103.8%
M07e
  M07e %inh: 8.945%
MV4-11
  MV4-11 %inh: 15.32%
CMS
  CMS %inh: 7.49%
CMK
  CMK %inh: 33.11%
ML-2
  ML-2 %inh: 8.496%

## O=C1NC(=NCCc2cccs2)S/C1=C\c1ccc2ncccc2c1 [SJ000581015-1]
U937
  U937 %inh: 4.783%
CHRF288-11
  CHRF288-11 %inh: -3.354%
MOLM-13
  MOLM-13 %inh: 1.226%
M07e
  M07e %inh: 0.2412%
MV4-11
  MV4-11 %inh: 1.469%
CMS
  CMS %inh: 2.886%
CMK
  CMK %inh: 2.413%
ML-2
  ML-2 %inh: 1.872%

## Cn1cc(C2=C(N3CCOCC3)C(=O)NC2=O)c2ccccc21 [SJ000581016-1]
U937
  U937 %inh: -0.03629%
CHRF288-11
  CHRF288-11 %inh: -0.4853%
MOLM-13
  MOLM-13 %inh: -0.4077%
M07e
  M07e %inh: -1.546%
MV4-11
  MV4-11 %inh: -3.16%
CMS
  CMS %inh: 2.558%
CMK
  CMK %inh: -3.99%
ML-2
  ML-2 %inh: 1.058%

## Cn1cc(C2=C(c3c4n(c5ccccc35)CCN(C(N)=S)C4)C(=O)NC2=O)c2ccccc21 [SJ000581017-1]
U937
  U937 %inh: 15.09%
CHRF288-11
  CHRF288-11 %inh: 61.39%
MOLM-13
  MOLM-13 %inh: 83.86%
M07e
  M07e %inh: 14.07%
MV4-11
  MV4-11 %inh: 52.04%
CMS
  CMS %inh: 66.21%
CMK
  CMK %inh: 110.3%
ML-2
  ML-2 %inh: 14.21%

## Nc1c(C(=O)c2ccc(CCCN3CCOCC3)cc2)cnn1-c1ccc(F)cc1 [SJ000581018-1]
U937
  U937 %inh: 1.825%
CHRF288-11
  CHRF288-11 %inh: 6.032%
MOLM-13
  MOLM-13 %inh: 3.662%
M07e
  M07e %inh: 0.8427%
MV4-11
  MV4-11 %inh: 0.41%
CMS
  CMS %inh: 2.2%
CMK
  CMK %inh: 0.7543%
ML-2
  ML-2 %inh: 1.663%
